Measurements as given in patent US10065957B2, “Beta-lactamase inhibitors” (Novartis AG, priority 2016, dated 2018).
Converted amounts (≈) assume the structure as drawn.

Columns and labels:
Type in all cases: cell-based
E. coli (TEM-10) = test: microbe, parasite or virus in culture; conditions: for MIC of aztreonam with beta-lactamase inhibitor: AZ + BLI at 2 μg/mL; for Activity of Beta-Lactam 5 with beta-lactamase inhibitor: Beta-Lactam 5 + BLI at 2 μg/mL; for MIC of ceftazidime with beta-lactamase inhibitor: Ceft + BLI at 2 μg/mL; for MIC of meropenem with beta-lactamase inhibitor: Mero + BLI at 2 μg/mL
Experimental: (§1) MICs were determined by the broth microdilution method in accordance with Clinical and Laboratories Institute (CLSI) guidelines. In brief, fresh overnight bacterial cultures were suspended in sterile saline, and adjusted to a 0.5 McFarland turbidity standard. Bacterial suspensions were then diluted in cation adjusted Mueller-Hinton Broth (MHB II; BBL) to yield a final inoculum of approximately 5×10^5 colony-forming units (CFU)/mL. A master plate of antibiotics was prepared at a concentration equivalent to hundred-fold the highest desired final concentration in 100% dimethyl sulfoxide (DMSO). The master antibiotic plate was then diluted by serial twofold dilution with a multichannel pipette. The resulting dilution series of compounds were diluted 1:10 with sterile water or a solution of beta-lactamase inhibitor prepared at a concentration equivalent to eleven-fold the desired final concentration in deionized water leading to a 10% DMSO final concentration. A volume of 10 μL of the drug dilution series was transferred to 96-well assay plates. Assay plates were inoculated with 90 μL of bacterial suspensions and incubated at 35° C. for 20 hrs. The assay plates were read using a microtiter plate reader (Molecular Devices) at 600 nm as well as by visual observation with a reading mirror. The lowest concentration of the compound that prevented visible growth was recorded as the MIC.
(§2) Synergy or potentiation of beta-lactam antibiotics through inhibition of Q-lactamases was assessed against an isogenic panel of E. coli strains, each expressing a unique beta-lactamase, and against clinical strains.
Construction of E. coli isogenic strains, NB27273-CDY0105 (OXA-18) and NB27273-CDY0048 (TEM-10). […] The gene encoding OXA-18 was then digested with XhoI and EcoRI and inserted into this vector, from which the gene for GIM-1 had been removed with XhoI and EcoRI.
From this template DNA, three fragments were generated by PCR using the following primer pairs;
This fragment was then digested with XbaI and EcoRI and inserted into pBAD-kan which was also cut with the same enzymes.
These final vectors for expression of OXA-18 and TEM-10 were transformed into BW25113 pspB to generate strains NB27273-CDY0105 (expressing OXA-18) and NB27273-CDY0048 (expressing TEM-10).

E. coli (AmpC) = test: microbe, parasite or virus in culture; conditions: for MIC of aztreonam with beta-lactamase inhibitor: AZ + BLI at 2 μg/mL; for Activity of Beta-Lactam 5 with beta-lactamase inhibitor: Beta-Lactam 5 + BLI at 2 μg/mL; for MIC of ceftazidime with beta-lactamase inhibitor: Ceft + BLI at 2 μg/mL; for MIC of meropenem with beta-lactamase inhibitor: Mero + BLI at 2 μg/mL
Experimental: as §1, with “MIC. Performance of the assay was monitored by testing aztreonam against laboratory quality control strains in accordance with guidelines of the CLSI.” for “MIC.”
as §2
The gene encoding AmpC was PCR amplified from the genome of strain P. aeruginosa PAO1 (NB52019) (GenBank ID U5R279) using primer pair E252 (gccCTCGAGggcgaggccccggcggatcgc) (SEQ ID NO: 17) and E253 (tgaGAATTCtcagcgcttcagcggcacct) (SEQ ID NO: 18).
The PCR products were then digested with XhoI and EcoRI and ligated into similarly digested plasmid pAH63-pstS(BlaP). Plasmid pAH63-pstS(BlaP) is a derivative of plasmid pAH63 (J Bacteriol: 183(21): 6384-6393) made by cloning the TEM-1 (bla) promoter and signal peptide encoding region from plasmid pBAD (J Bacteriol. 1995 July 177(14):4121-30) into plasmid pAH63. This fragment was PCR amplified from pBAD using primer pair E192 (ttcaCTGCAGtgaacgttgcgaagcaacggC) (SEQ ID NO:19) and E194 (TCGAggatcctcgagagcaaaaacaggaaggcaaaatgccg) (SEQ ID NO:20), digested with PstI and BamHI and inserted into similarly digested plasmid pAH63. Therefore, expression of beta-lactamases from pAH63-pstS(BlaP) based constructs is constitutive and the signal sequence is provided to direct these proteins to the periplasm. Plasmid pAH63 based vectors are used for insertion into the genome in single copy, however, to provide higher expression levels to allow more sensitive detection of the susceptibility of compounds to the expressed beta-lactamases, the expression inserts contained in these vectors were moved to the replicative multicopy vector pBAD-Kan (J Bacteriol. 1995 July 177(14):4121-30). To accomplish this, the inserts encompassing the beta-lactamase genes, with the associated TEM promoter and signal sequences, were PCR amplified from their corresponding vectors using primer E268 (ccgTCTAGAcggatggcctttttgcgtttc) (SEQ ID NO:21) and E202 (aatcGAATTCttactgaccattaacgcccaagc) (SEQ ID NO:22) for the KPC2 construct, E204 (aatcGAATTCttaacgctgccagtgctcaatc) (SEQ ID NO:23) for the SHV-12 construct and E203 (aatcGAATTCttacagaccgtcggtgacaatc) (SEQ ID NO:24) for the CTX-M-15 construct. These fragments were then digested with XbaI and EcoRI, and each was inserted into pBAD18-kan that had been digested with the same enzymes to generate multicopy vectors expressing KPC-2, SHV-12 and CTX-M-15, respectively. […]

K. pneumoniae ATCC 43816 = test: MIC by broth microdilution, BLI alone; conditions: Klebsiella pneumoniae, ATCC43816, read-out: Minimal Inhibitory Concentrations (MIC) of selected BLIs
Experimental: as §1, with “MIC. Performance of the assay was monitored by testing aztreonam against laboratory quality control strains in accordance with guidelines of the CLSI.” for “MIC.”

E. coli ATCC 25922 = test: MIC by broth microdilution, BLI alone; conditions: Escherichia coli, ATCC25922, read-out: Minimal Inhibitory Concentrations (MIC) of selected BLIs
Experimental: as §1, with “MIC. Performance of the assay was monitored by testing aztreonam against laboratory quality control strains in accordance with guidelines of the CLSI.” for “MIC.”

P. aeruginosa ATCC 27853 = test: MIC by broth microdilution, BLI alone; conditions: Pseudomonas aeruginosa, ATCC27853, read-out: Minimal Inhibitory Concentrations (MIC) of selected BLIs
Experimental: as §1, with “MIC. Performance of the assay was monitored by testing aztreonam against laboratory quality control strains in accordance with guidelines of the CLSI.” for “MIC.”

[1] = tested on: Enterobacter cloacae NB25044 (CTX-M-12, ACT, KPC-2); conditions: AZ + BLI at 2 μg/mL
Experimental: as §1, §2

[2] = tested on: K. pneumoniae NB29323 (CTX-M-15, OXA-48, VEB-1); conditions: AZ + BLI at 2 μg/mL
Experimental: as §1, with “MIC. Performance of the assay was monitored by testing aztreonam against laboratory quality control strains in accordance with guidelines of the CLSI.” for “MIC.”
as §2

Row | Structure (SMILES) | MIC of aztreonam with beta-lactamase inhibitor (E. coli (TEM-10)) | Activity of Beta-Lactam 5 with beta-lactamase inhibitor (E. coli (TEM-10)) | MIC of ceftazidime with beta-lactamase inhibitor (E. coli (TEM-10)) | MIC of meropenem with beta-lactamase inhibitor (E. coli (TEM-10)) | MIC of aztreonam with beta-lactamase inhibitor (E. coli (AmpC)) | Activity of Beta-Lactam 5 with beta-lactamase inhibitor (E. coli (AmpC)) | MIC of ceftazidime with beta-lactamase inhibitor (E. coli (AmpC)) | MIC of meropenem with beta-lactamase inhibitor (E. coli (AmpC)) | MIC (K. pneumoniae ATCC 43816) | MIC (E. coli ATCC 25922) | MIC (P. aeruginosa ATCC 27853) | Activity of aztreonam with beta-lactamase inhibitor [1] | Activity of aztreonam with beta-lactamase inhibitor [2]
1 | O=C(NC1CCNCC1)[C@@H]1CC[C@@H]2CN1C(=O)N2OS(=O)(=O)O [Relebactam] | 2 µg/mL | 0.25 µg/mL | 8 µg/mL | ≤0.06 µg/mL | 0.125 µg/mL | 0.25 µg/mL | 0.125 µg/mL | ≤0.06 µg/mL | > 64 µg/mL | > 64 µg/mL | > 64 µg/mL | >64 µg/mL | 8 µg/mL
2 | O=C1NC[C@@H]2C[C@@H]3CN(C(=O)N3OS(=O)(=O)[O-])[C@H]12.[Na+] [Example 1, Sodium (4R,5aS,8aS)-2,8-dioxohexahydro-2H-1,4-methanopyrrolo[3,4-d][1,3]diazepin-3(4H)-yl sulfate] | 0.125 µg/mL | 0.125 µg/mL | 0.25 µg/mL | ≤0.06 µg/mL | 0.125 µg/mL | 0.25 µg/mL | 0.25 µg/mL | ≤0.06 µg/mL | > 64 µg/mL | > 64 µg/mL | > 64 µg/mL | 4 µg/mL | 0.25 µg/mL
3 | NC(=O)[C@@H]1CC[C@@H]2CN1C(=O)N2OS(=O)(=O)O [Avibactam] | 0.25 µg/mL | 0.125 µg/mL | 1 µg/mL | ≤0.06 µg/mL | ≤0.06 µg/mL | 0.125 µg/mL | 0.125 µg/mL | ≤0.06 µg/mL | 32 µg/mL (≈ 121 µM) | 16 µg/mL (≈ 60.3 µM) | > 64 µg/mL | 8 µg/mL | 2 µg/mL
